Series [1] in a line: Cytotoxicity against human HuH7 cells after 72 hrs by MTT assay. The class given is cell-based, Huh-7. On the technique in general: Tetrazolium assays rely on reduction of a dye to a coloured formazan, in cell work by metabolically active cells.
In series [2] the test system is Hepatitis C virus. Put plainly: Antiviral activity against HCV genotype 1b infected in human HuH7 cells assessed as inhibition of viral RNA replication at 20 uM after 72 hrs by luciferase reporter gene assay. The class given is functional, Hepacivirus hominis. The note with it: Huh-7, 72 h. On the technique in general: Reporter assays use an easily measured gene product as a stand-in for the process of interest.

Series [3] can be described thus: Selectivity index, ratio of CC50 for human HuH7 cells to EC50 for HCV genotype 1b infected in human HuH7 cells. Set-up: species or system Huh-7.
The nature of series [4]: Cytotoxicity against human HEK293 cells after 72 hrs by MTT assay. The class given is cell-based.
Series [5] concerns the target T1, Inhibitor of nuclear factor kappa-B kinase subunit beta (Homo sapiens) (UniProt O14920).
T1 sequence (whole entry): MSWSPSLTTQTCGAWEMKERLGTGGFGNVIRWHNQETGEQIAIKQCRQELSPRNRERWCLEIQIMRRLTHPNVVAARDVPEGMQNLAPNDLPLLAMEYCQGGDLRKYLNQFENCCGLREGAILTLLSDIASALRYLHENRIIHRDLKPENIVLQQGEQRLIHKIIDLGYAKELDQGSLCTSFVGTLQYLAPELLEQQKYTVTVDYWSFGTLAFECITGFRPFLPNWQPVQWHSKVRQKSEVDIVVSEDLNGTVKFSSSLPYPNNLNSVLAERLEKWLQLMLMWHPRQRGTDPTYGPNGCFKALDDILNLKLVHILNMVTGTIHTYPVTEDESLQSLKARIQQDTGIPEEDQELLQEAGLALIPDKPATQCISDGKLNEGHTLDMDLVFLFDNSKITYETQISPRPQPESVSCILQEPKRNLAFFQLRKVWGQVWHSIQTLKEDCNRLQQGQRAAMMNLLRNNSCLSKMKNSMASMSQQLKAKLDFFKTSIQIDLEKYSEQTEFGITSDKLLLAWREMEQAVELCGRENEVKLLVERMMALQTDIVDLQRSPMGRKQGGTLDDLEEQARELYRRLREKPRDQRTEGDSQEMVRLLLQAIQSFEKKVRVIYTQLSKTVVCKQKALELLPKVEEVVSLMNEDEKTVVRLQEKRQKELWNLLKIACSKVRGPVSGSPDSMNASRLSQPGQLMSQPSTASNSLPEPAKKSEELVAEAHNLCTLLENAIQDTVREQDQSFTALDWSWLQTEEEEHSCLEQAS
In words: Inhibition of human IKKbeta at 10 uM after 40 mins by scintillation counting analysis in presence of [gamma-33P]ATP.

Series [6] deals with Hepatitis C virus. Put plainly: Antiviral activity against HCV genotype 1b infected in human HuH7 cells assessed as inhibition of viral RNA replication after 72 hrs by luciferase reporter gene assay. Type of series: functional, organism-based, Hepacivirus hominis. As to conditions: Huh-7, 72 h.
Series [7] concerns the target T2, Inhibitor of nuclear factor kappa-B kinase subunit alpha (Homo sapiens) (UniProt O15111).
T2 sequence (whole entry): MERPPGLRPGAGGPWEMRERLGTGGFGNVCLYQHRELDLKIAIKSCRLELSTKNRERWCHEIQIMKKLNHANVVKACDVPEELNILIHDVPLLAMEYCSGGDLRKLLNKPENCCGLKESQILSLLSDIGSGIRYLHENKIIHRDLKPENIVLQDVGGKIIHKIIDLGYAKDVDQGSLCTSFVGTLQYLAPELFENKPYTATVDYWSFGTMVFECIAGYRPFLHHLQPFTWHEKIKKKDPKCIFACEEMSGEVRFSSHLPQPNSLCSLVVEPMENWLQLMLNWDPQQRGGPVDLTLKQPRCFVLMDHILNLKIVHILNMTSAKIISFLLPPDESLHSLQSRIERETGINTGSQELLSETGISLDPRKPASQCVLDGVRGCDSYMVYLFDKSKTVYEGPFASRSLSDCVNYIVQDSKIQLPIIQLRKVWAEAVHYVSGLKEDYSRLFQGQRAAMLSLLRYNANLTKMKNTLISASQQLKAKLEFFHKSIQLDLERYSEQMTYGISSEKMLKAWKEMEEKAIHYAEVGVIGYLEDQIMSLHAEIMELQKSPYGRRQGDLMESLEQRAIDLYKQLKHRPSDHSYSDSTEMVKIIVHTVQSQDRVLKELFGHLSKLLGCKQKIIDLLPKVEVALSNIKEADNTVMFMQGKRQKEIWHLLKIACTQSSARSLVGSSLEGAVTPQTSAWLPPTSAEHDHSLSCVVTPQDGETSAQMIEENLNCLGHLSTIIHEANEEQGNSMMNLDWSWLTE
Put plainly: Inhibition of human IKKalpha at 10 uM after 40 mins by scintillation counting analysis in presence of [gamma-33P]ATP.

The nature of series [8]: Cytotoxicity against human LO2 cells after 72 hrs by MTT assay. The class given is cell-based, L02.

What is called CC50 is the concentration at which the toxic effect on the cells reaches its halfway point. The inhibition is the drop in the measured response relative to a control, in per cent. For `COc1cccc(-c2cc(C(F)(F)F)c3c(N)c(C(N)=O)sc3n2)c1`, the CC50 at 72 h in series [1] is more than 20 µM. Moreover, the inhibition at 20 µM with Hepatitis C virus [2] is 45%.

A word on the EC50: it is the concentration needed to bring the measured effect to its halfway point. For `COc1ccc(-c2cc(C(F)(F)F)c3c(N)c(C(N)=O)sc3n2)cc1`, the “Ratio CC50/EC50” value in series [3] amounted to 11.6. For the same compound, the CC50 at 72 h came to 46.4 µM in series [1], 24.7 µM in series [4] and 26.2 µM in series [8]. Moreover, the inhibition is 6% in series [5] and 7% in series [7]. Further, the EC50 in the series with Hepatitis C virus [6] was 4 µM.

The values are drawn from ChEMBL document CHEMBL3124910, “Discovery and structure-activity relationships study of novel thieno[2,3-b]pyridine analogues as hepatitis C virus inhibitors” (Bioorg Med Chem Lett, 2014).
